Structures can show the parent of a compound that is named as a salt.
Molecular target: T1, human recombinant Dipeptidyl peptidase IV enzyme (Homo sapiens, UniProt P27487)
T1 construct: purchased R & D Systems
Assay: In-vitro DPP-IV assay (cleavage of Gly-Pro-AMC)
Type: biochemical
Details: for IC50: n = 3, substrate Gly-Pro-AMC, 30° C., 30 minutes, read-out: DPP-IV inhibition IC50; for inhibition at 0.3 µM: at 300 nM, n = 3, read-out: DPP-IV inhibition, percent inhibition at 300 nM
Procedure: Protocol for In-Vitro DPP-IV Assay
DPPIV activity was determined by the cleavage rate of 7-amino-4-methyl coumarin (AMC) from synthetic substrate Glycyl-Prolyl-AMC. In brief, the assay was conducted by adding 10 ng of human recombinant Dipeptidyl peptidase IV enzyme (DPPIV, available commercially from R & D Systems) in 50 μl of the assay buffer (25 mM Tris, pH 7.4, 140 mM NaCl, 10 mM KCl, 1% BSA) to 96 well black flat bottom microtiter plates. The reaction was initiated by adding 50 μl of 100 μM substrate Gly-Pro-AMC. The incubation was carried out in the kinetic mode at 30° C. for 30 minutes. Fluorescence was measured using Fluorostar at excitation filter of 380 nm and emission filter of 460 nm). Test compounds and solvent controls were added as 1 μl additions. A standard curve of free amino methyl coumarin (AMC) was generated using 0–100 μM AMC in the assay buffer. The curve generated, which was linear was used for the interpolation of catalytic activity.
Test compounds dissolved in DMSO at 5–6 concentrations were tested in duplicate along with the solvent control and blank samples. Percent inhibition was calculated at each concentration with respect to the solvent control sample (no test compound added). IC50 values were calculated from 3 experiments using the prism software.

T1 sequence (P27487 whole entry): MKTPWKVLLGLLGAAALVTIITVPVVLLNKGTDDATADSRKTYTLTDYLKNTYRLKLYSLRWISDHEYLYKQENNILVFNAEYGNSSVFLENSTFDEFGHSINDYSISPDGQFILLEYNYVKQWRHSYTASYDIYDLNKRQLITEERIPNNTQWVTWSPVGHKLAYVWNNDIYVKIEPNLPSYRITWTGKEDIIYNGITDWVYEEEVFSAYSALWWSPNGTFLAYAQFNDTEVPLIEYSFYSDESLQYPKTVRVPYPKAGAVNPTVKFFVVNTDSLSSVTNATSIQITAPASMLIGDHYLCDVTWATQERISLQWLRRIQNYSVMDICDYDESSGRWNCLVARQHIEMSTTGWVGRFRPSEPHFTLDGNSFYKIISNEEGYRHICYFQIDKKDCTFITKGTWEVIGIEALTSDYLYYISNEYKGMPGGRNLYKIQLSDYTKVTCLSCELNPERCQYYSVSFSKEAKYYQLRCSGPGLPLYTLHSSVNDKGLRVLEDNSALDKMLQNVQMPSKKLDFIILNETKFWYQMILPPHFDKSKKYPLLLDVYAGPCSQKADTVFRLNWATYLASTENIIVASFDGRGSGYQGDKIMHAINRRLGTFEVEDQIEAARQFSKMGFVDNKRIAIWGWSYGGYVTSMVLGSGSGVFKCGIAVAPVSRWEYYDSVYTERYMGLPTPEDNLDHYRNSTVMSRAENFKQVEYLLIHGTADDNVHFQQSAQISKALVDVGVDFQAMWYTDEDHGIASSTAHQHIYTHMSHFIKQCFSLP

Row | IC50 [nM] | inhibition at 0.3 µM [%] | Structure (SMILES)
1 | 3.58 |  | N#Cc1ccc(NCC2CCC(NCC(=O)N3C[C@@H](F)C[C@H]3C#N)C2)nc1 (mixture of isomers) [Example-14, 6-((1SR,3RS)-3-{2-[(2S,4S)-2-Cyano-4-fluoropyrrolidin-1-yl]-2-oxoethylamino}-cyclopentylmethylamino)nicotinonitrile]
2 | 9.8 |  | N#C[C@@H]1CCCN1C(=O)CNC1CCC(CNc2ncccn2)C1 (mixture of isomers) [Example-18, (2S)-1-{2-[(3SR,1RS)-3-(2-Pyrimidinylaminomethyl)cyclopentylamino)acetyl}-pyrrolidine-2-carbonitrile]
3 | 20 |  | N#C[C@@H]1CCCN1C(=O)CNC1CCC(CNc2ncccn2)C1 (mixture of isomers) [Example-19, (2S)-1-{2-[(3SR,1RS)-3-(2-Pyrimidinylaminomethyl)cyclopentylamino)acetyl}-pyrrolidine-2-carbonitrile dihydrochloride]
4 | 6.29 |  | N#C[C@@H]1CCCN1C(=O)CNC1CCC(CNc2ccc([N+](=O)[O-])cc2F)C1 (mixture of isomers) [Example-24, (2S)-1-{2-[(3SR,1RS)-3-(2-Fluoro-4-nitroanilinomethyl)cyclopentylamino]acetyl}-pyrrolidine-2-carbonitrile]
5 | 17.4 |  | N#C[C@@H]1CCCN1C(=O)CNC1CCC(CNc2cc(F)c(F)cc2F)C1 (mixture of isomers) [Example-27, (2S)-1-{2-[(3SR,1RS)-3-(2,4,5-Trifluoroanilinomethyl)cyclopentylamino]acetyl}-pyrrolidine-2-carbonitrile]
6 | 22.3 |  | N#C[C@@H]1CCCN1C(=O)CNC1CCC(CSc2ccccc2)C1 (mixture of isomers) [Example-28, (2S)-1-{2-[(3SR,1RS)-3-Phenylsulfanylmethylcyclopentylamino]acetyl}-pyrrolidine-2-carbonitrile]
7 | 9.42 |  | N#Cc1ccc(SCC2CCC(NCC(=O)N3CCC[C@H]3C#N)C2)nc1 (mixture of isomers) [Example-38, 6-((1SR,3RS)-3-{2-[(2S)-2-Cyanopyrrolidin-1-yl]-2-oxoethylamino}cyclopentyl-methylsulfanyl)nicotinonitrile]
8 | 78.7 |  | N#Cc1ccc(S(=O)(=O)CC2CCC(NCC(=O)N3CCC[C@H]3C#N)C2)nc1 (mixture of isomers) [Example-40, 6-((1SR,3RS)-3-{2-[(2S)-2-Cyanopyrrolidin-1-yl)-2-oxoethylamino}cyclopentyl-methylsulfonyl)nicotinonitrile]
9 |  | 6 | N#Cc1ccc(NCC2CCC(NCC(=O)N3CCCC3)C2)nc1 (racemic) [Example-1, cis-(±)-6-(3-[2-(1-Pyrrolidinyl)-2-oxoethylamino]cyclopentylmethylamino)nicotino-nitrile]
10 | 6.29 |  | N#Cc1ccc(NCC2CCC(NCC(=O)N3CCC[C@H]3C#N)C2)nc1 (mixture of isomers) [Example-3, 6-((1SR,3RS)-3-{2-[(2S)-2-Cyanopyrrolidin-1-yl]-2-oxoethylamino}cyclopentyl-methylamino)nicotinonitrile]
11 | 10 |  | N#Cc1ccc(NCC2CCC(NCC(=O)N3CCC[C@H]3C#N)C2)nc1 (mixture of isomers) [Example-4, 6-((1SR,3RS)-3-{2-[(2S)-2-Cyanopyrrolidin-1-yl]-2-oxoethylamino}cyclopentyl-methylamino)nicotinonitrile dihydrochloride]
12 | 10.3 |  | N#Cc1ccc(NCC2CCC(NCC(=O)N3CCC[C@H]3C#N)C2)nc1 (mixture of isomers) [Example-5, 6-((1SR,3RS)-3-{2-[(2S)-2-Cyanopyrrolidin-1-yl]-2-oxoethylamino}cyclopentyl-methylamino)nicotinonitrile maleate]
13 | 11.7 |  | N#Cc1ccc(NCC2CCC(NCC(=O)N3CCC[C@H]3C#N)C2)nc1 (mixture of isomers) [Example-7, 6-((1SR,3RS)-3-{2-[(2S)-2-Cyanopyrrolidin-1-yl]-2-oxoethylamino}cyclopentyl-methylamino)nicotinonitrile citrate]
14 | 11.2 |  | N#Cc1ccc(NCC2C=CC(NCC(=O)N3CCC[C@H]3C#N)C2)nc1 (mixture of isomers) [Example-12]
15 | 12.1 |  | N#Cc1ccc(NC[C@@H]2CC[C@@H](NCC(=O)N3CCC[C@H]3C#N)C2)nc1 (racemic) [Example-13, 6-((1RS,3RS)-3-{2-[(2S)-2-Cyanopyrrolidin-1-yl]-2-oxoethylamino}cyclopentyl-methylamino)nicotinonitrile]
16 | 2.76 |  | N#Cc1ccc(NCC2CCC(NCC(=O)N3CSC[C@H]3C#N)C2)nc1 (mixture of isomers) [Example-16, (4S)-3-{2-(1SR,3RS)-3-[(5-Cyano-2-pyridylaminomethyl)cyclopentylamino]acetyl}-1,3-thiazolane-4-carbonitrile dihydrochloride]

Row | IC50 [nM] | inhibition at 0.3 µM [%] | Structure (SMILES)
17 | 2.93 |  | N#Cc1ccc(NC[C@@H]2CC[C@@H](NCC(=O)N3CSC[C@H]3C#N)C2)nc1 (racemic) [Example-17, (4S)-3-{2-(1RS,3RS)-3-[(5-Cyano-2-pyridylaminomethyl)cyclopentylamino]acetyl}-1,3-thiazolane-4-carbonitrile dihydrochloride]
18 | 10 |  | N#C[C@@H]1CCCN1C(=O)CNC1CCC(CS(=O)(=O)c2ccccc2)C1 (mixture of isomers) [Example-29]
19 | 11.1 |  | N#Cc1ccc(SCC2CCC(NCC(=O)N3CCC[C@H]3C#N)C2)nc1 (mixture of isomers) [Example-39, 6-((1SR,3RS)-3-{2-[(2S)-2-Cyanopyrrolidin-1-yl]-2-oxoethylamino}cyclopentyl-methylsulfanyl)nictinonitrile maleate]
20 | 35.9 |  | N#C[C@@H]1CCCN1C(=O)CNC1CCC(COc2ccc([N+](=O)[O-])cc2)C1 (mixture of isomers) [Example-43, (2S)-1-{2-[(3SR,1RS)-3-(4-Nitrophenoxymethyl)cyclopentylamino]acetyl}-pyrro-lidine-2-carbonitrile]
21 |  | 17 | N#Cc1ccc(NCC2CCC(NCC(=O)N3CCSC3)C2)nc1 (stereo not drawn) [Example-2]
22 | 10.6 |  | N#Cc1ccc(NC[C@H]2CC[C@@H](NCC(=O)N3CCC[C@H]3C#N)C2)nc1 [Example-8, 6-((1S,3R)-3-{2-[(2S)-2-Cyanopyrrolidin-1-yl]-2-oxoethylamino}cyclopentylmethyl-amino)nicotinonitrile]
23 | 6.27 |  | N#Cc1ccc(NC[C@H]2CC[C@@H](NCC(=O)N3CCC[C@H]3C#N)C2)nc1 [Example-9, 6-((1S,3R)-3-{2-[(2S)-2-Cyanopyrrolidin-1-yl]-2-oxoethylamino}cyclopentylmethyl-amino)nicotinonitrile dihydrochloride]
24 | 7.81 |  | N#Cc1ccc(NC[C@@H]2CC[C@H](NCC(=O)N3CCC[C@H]3C#N)C2)nc1 [Example-10, 6-((1R,3S)-3-{2-[(2S)-2-Cyanopyrrolidin-1-yl]-2-oxoethylamino}cyclopentylmethyl-amino)nicotinonitrile]
25 | 13.9 |  | N#Cc1ccc(NC[C@@H]2CC[C@H](NCC(=O)N3CCC[C@H]3C#N)C2)nc1 [Example-11, 6-((1R,3S)-3-{2-[(2S)-2-Cyanopyrrolidin-1-yl]-2-oxoethylamino}cyclopentylmethyl-amino)nicotinonitrile dihydrochloride]
26 | 3.17 |  | N#Cc1ccc(NC[C@H]2CC[C@@H](NCC(=O)N3C[C@@H](F)C[C@H]3C#N)C2)nc1 [Example-15, 6-((1S,3R)-3-{2-[(2S,4S)-2-Cyano-4-fluoropyrrolidin-1-yl]-2-oxoethylamino}cyclo-pentylmethylamino)nicotinonitrile]
27 | 41.3 |  | N#C[C@@H]1CCCN1C(=O)CN[C@@H]1CC[C@H](CNc2ncccn2)C1 [Example-20, (2S)-1-{2-[(3S,1R)-3-(2-Pyrimidinylaminomethyl)cyclopentylamino)acetyl}-pyrrolidine-2-carbonitrile]
28 | 6.74 |  | N#C[C@@H]1CCCN1C(=O)CN[C@H]1CC[C@@H](CNc2ncccn2)C1 [Example-21]
29 | 10.4 |  | N#C[C@@H]1CCCN1C(=O)CN[C@@H]1CC[C@H](CNc2nnnn2-c2ccccc2)C1 [Example-22, (2S)-1-{2-[(3S,1R)-3-(1-Phenyl-1H-1,2,3,4-tetraazol-5-ylaminomethyl)cyclopentyl-amino]acetyl}-pyrrolidine-2-carbonitrile]
30 | 8.59 |  | N#C[C@@H]1CCCN1C(=O)CN[C@@H]1CC[C@H](CNc2ccc([N+](=O)[O-])cc2F)C1 [Example-25, (2S)-1-{2-[(1R,3S)-3-(2-Fluoro-4-nitroanilinmethyl)cyclopentylamino]acetyl}-pyrrolidine-2-carbonitrile]
31 | 5.16 |  | N#C[C@@H]1C[C@H](F)CN1C(=O)CN[C@@H]1CC[C@H](CNc2ccc([N+](=O)[O-])cc2F)C1 [Example-26]
32 | 63.4 |  | N#C[C@@H]1CCCN1C(=O)CN[C@@H]1CC[C@H](CSc2ccccc2)C1 [Example-30, (2S)-1-{2-[(3S,1R)-3-Phenylsulfanylmethylcycopentylamino]acetytl}-pyrrolidine-2-carbonitrile]

Row | Structure (SMILES) | IC50 [nM] | inhibition at 0.3 µM [%]
33 | N#C[C@@H]1CCCN1C(=O)CNC1CCC(CNc2ccc([N+](=O)[O-])c(Cl)c2)C1 (mixture of isomers) [Example-23, (2S)-1-{2-[(3SR,1RS)-3-(3-Chloro-4-nitroanilinomethyl)cyclopentylamino]acetyl}-pyrrolidine-2-carbonitrile] | 14.6 | 
